What was measured:
Format in all cases: biochemical, E. coli K12
[1] = target: T1, L-aspartate-α-decarboxylase (Escherichia coli, UniProt P0A790); test: Bioconversion of 0.5M D/L-aspartate with NS3291 cells (Example 3)
T1 construct: expressed in transfected cells; host or cells: E. coli W3110 transformed with pIF309 = strain NS3291 (ATCC 98675), whole cells
Experimental: 66.5 g (0.5M) D/L-aspartate (Sigma, A-9006) was weighed into a 2 L beaker and the pH adjusted to 7.0 with 10N NaOH. The volume was brought to 963 ml with deionized H2 O. 137 ml of cells (NS 3291, described above) were added at a packed cell volume ("PCV") of 7.31 g/10 ml cells resulting in a final volume of 1.1 L. Samples (approximately 1 ml each) were removed over time, centrifuged and the supernatant fluid was analyzed by HPLC for D- and L-aspartic acid content.
In all of the Examples herein, D- and L-aspartic acid isomers were quantified by HPLC using the following precolumn derivatization method. Aspartic acid was converted into diastereomers using ortho-phthalaldehyde and N-acetyl-L-cysteine. Separation of the diastereomers was achieved on a Supelcosil™ LC-18DB, 3μ, 150×4.6 mm column using a mobile phase of A: 20% methanol/80% triethylamine phosphate and B: methanol, and a step gradient as follows: […]
Retention times were 4.19 minutes and 4.54 minutes for D-aspartic acid and L-aspartic acid, respectively.
Samples from bioconversions were centrifuged to remove cells in a microcentrifuge and the supernatant fluid diluted appropriately such that the value determined from the HPLC fell within the linear region of the standard curve. These dilutions were usually between 1:100 and 1:200, made with deionized water.

[2] = target: T1, L-aspartate-α-decarboxylase; test: Temperature study, 45° C. (Example 9); conditions: for concentration in supernatant fluid / percent remaining: 1.0M, 100 g/l cells
Experimental: 133.1 g (1 mol) of D/L-aspartic acid was dissolved in deionized H2 O and the pH was adjusted to 7.0 with 10N NaOH, approximately 100 ml. Cells, freshly thawed from -80° C., were added to achieve a final concentration of 100 g/l. Three 2 L fermentors were each charged with 963 ml of substrate solution and 137 ml of cells and then heated to 37° C. and 45° C. while mixing at 300 rpm or heated to 50° C. while mixing at 450 rpm. Samples, approximately 1 ml, were removed over time and pH adjusted to 7.0 with either NaOH or HCl. After centrifugation to remove cells, the supernatant fluid was analyzed for both D- and L-aspartic acid.

[3] = target: T1, L-aspartate-α-decarboxylase; test: 1.0M D/L-aspartate, 100 g/l cells, reaction A (Example 6); conditions: for concentration in supernatant fluid: 1.0M, 100 g/l cells, 37° C.
Experimental: 1.0M D/L-aspartate was tested as a substrate for two enzyme cell loads, 100 g/l cells, referred to here as reaction "A", and 50 g/l cells, referred to here as reaction "B".
133.1 g of D/L-aspartic acid was dissolved in approximately 600 ml deionized H2 O and pH was adjusted to 7.0 with NaOH, using 100 ml of 10N NaOH and a small amount of 1.0N NaOH. The substrate for reaction A was brought to 963 ml with deionized H2 O. The reaction was started with 137 ml cells that were stored in the cold room. For reaction B, the substrate was brought to a volume of 981.5 ml. The reaction was started with […] cells.
Both reactions were carried out in 2 L fermentors at pH 7.0 without constant adjustments and at 37° C. Samples were removed over time, centrifuged and the supernatant fluid was diluted and submitted for D- and L-aspartic acid HPLC analysis.

[4] = target: T1, L-aspartate-α-decarboxylase; test: Activity towards D/L-glutamate and D/L-alanine, D/L-aspartate as control (Example 8); conditions: for concentration in supernatant fluid / percent remaining: racemate substrate, pH 7.0
Experimental: D/L-aspartate was run as a control.
Substrates were prepared by dissolving solid amino acid racemate in approximately 75 ml deionized H2 O and adjusting the pH to 7.0 with 10N NaOH. The volume was then brought to 100 ml with deionized H2 O. The cells used were stored frozen for about 1 month and then thawed and stored in a refrigerator for about 1 month prior to running the experiments.
The reaction was run the same as described in the prior Examples. Samples of supernatant fluid, approximately 0.20 ml, were removed over time, centrifuged and stored frozen before analysis by HPLC as described in the prior Examples.

`N[C@H](CC(=O)O)C(=O)O` [D-Asp, D-aspartic acid] was tested, and the percent remaining ([1]; 5.5000 hr) was 100.07%, the percent remaining ([1]; 24.500 hr) was 99.829% and the percent remaining ([1]; 26.500 hr) was 94.676%. For the same compound, the percent remaining ([1]; 32.500 hr) was 95.870%, the percent remaining ([1]; 47.500 hr) was 95.768% and the percent remaining ([1]; 52.000 hr) was 96.894%. The percent remaining ([1]; 68.000 hr) was 87.099%, the “stability of the isomer” value [2] was “stable” and the “concentration in supernatant fluid” value ([2]; 0.000 hr) was 55.280 mg/mL. For the same compound, the “concentration in supernatant fluid” value ([2]; 2.5000 hr) was 54.820 mg/mL, the percent remaining ([2]; 2.5000 hr) was 99.168% and the “concentration in supernatant fluid” value ([2]; 4.0000 hr) was 53.960 mg/mL. The percent remaining ([2]; 4.0000 hr) was 97.612%, the “concentration in supernatant fluid” value ([2]; 6.0000 hr) was 53.460 mg/mL and the percent remaining ([2]; 6.0000 hr) was 96.708%. The “concentration in supernatant fluid” value ([2]; 8.0000 hr) was 54.040 mg/mL, the percent remaining ([2]; 8.0000 hr) was 97.757% and the “concentration in supernatant fluid” value ([2]; 10.000 hr) was 54.870 mg/mL. The percent remaining ([2]; 10.000 hr) was 99.258%, the “concentration in supernatant fluid” value ([2]; 12.000 hr) was 54.060 mg/mL and the percent remaining ([2]; 12.000 hr) was 97.793%. For the same compound, the “concentration in supernatant fluid” value ([2]; 20.000 hr) was 52.360 mg/mL, the percent remaining ([2]; 20.000 hr) was 94.718% and the “concentration in supernatant fluid” value ([2]; 24.000 hr) was 51.310 mg/mL. For the same compound, the percent remaining ([2]; 24.000 hr) was 92.818%, the “concentration in supernatant fluid” value ([2]; 29.000 hr) was 53.830 mg/mL and the percent remaining ([2]; 29.000 hr) was 97.377%. For the same compound, the “concentration in supernatant fluid” value ([2]; 34.000 hr) was 52.880 mg/mL, the percent remaining ([2]; 34.000 hr) was 95.658% and the “concentration in supernatant fluid” value ([2]; 44.000 hr) was 53.640 mg/mL. The percent remaining ([2]; 44.000 hr) was 97.033%, the “concentration in supernatant fluid” value ([2]; 48.000 hr) was 52.730 mg/mL and the percent remaining ([2]; 48.000 hr) was 95.387%. For the same compound, the “concentration in supernatant fluid” value ([2]; 68.000 hr) was 53.560 mg/mL, the percent remaining ([2]; 68.000 hr) was 96.889% and the “concentration in supernatant fluid” value ([2]; 92.000 hr) was 53.560 mg/mL. The percent remaining ([2]; 92.000 hr) was 96.889%, the “concentration in supernatant fluid” value ([3]; 0.0000 hr) was 53.600 mg/mL and the “concentration in supernatant fluid” value ([3]; 2.0000 hr) was 50.680 mg/mL. The “concentration in supernatant fluid” value ([3]; 4.5000 hr) was 44.920 mg/mL, the “concentration in supernatant fluid” value ([3]; 7.0000 hr) was 42.260 mg/mL and the “concentration in supernatant fluid” value ([3]; 22.500 hr) was 35.680 mg/mL. For the same compound, the “concentration in supernatant fluid” value ([3]; 24.000 hr) was 34.420 mg/mL, the “concentration in supernatant fluid” value ([3]; 31.000 hr) was 32.660 mg/mL and the “concentration in supernatant fluid” value ([3]; 37.500 hr) was 27.950 mg/mL. The “concentration in supernatant fluid” value ([3]; 47.000 hr) was 20.710 mg/mL, the “concentration in supernatant fluid” value ([3]; 50.500 hr) was 18.490 mg/mL and the “concentration in supernatant fluid” value ([3]; 53.800 hr) was 13.730 mg/mL. The “concentration in supernatant fluid” value ([3]; 58.000 hr) was 13.410 mg/mL, the “concentration in supernatant fluid” value ([3]; 70.000 hr) was 6.1300 mg/mL and the “concentration in supernatant fluid” value ([3]; 72.000 hr) was 5.3900 mg/mL. For the same compound, the “concentration in supernatant fluid” value ([4]; 0 hr) was 29.890 mg/mL, the “concentration in supernatant fluid” value ([4]; 3.5 hr) was 29.850 mg/mL and the percent remaining ([4]; 3.5 hr) was 99.866%. The “concentration in supernatant fluid” value ([4]; 8.5 hr) was 29.900 mg/mL, the percent remaining ([4]; 8.5 hr) was 100.03% and the “concentration in supernatant fluid” value ([4]; 24 hr) was 29.740 mg/mL. The percent remaining ([4]; 24 hr) was 99.498%, the “concentration in supernatant fluid” value ([4]; 55 hr) was 30.120 mg/mL and the percent remaining ([4]; 55 hr) was 100.77%.

`N[C@@H](CC(=O)O)C(=O)O` [L-Asp, L-aspartic acid] was tested, and the percent remaining ([1]; 5.5000 hr) was 41.739%, the percent remaining ([1]; 24.500 hr) was 0.5888% and the percent remaining ([1]; 26.500 hr) was 0.4157%. The percent remaining ([1]; 32.500 hr) was 0.2078%, the percent remaining ([1]; 47.500 hr) was 0.1039% and the percent remaining ([1]; 52.000 hr) was 0.06928%. The percent remaining ([1]; 68.000 hr) was 1.4894%, the “concentration in supernatant fluid” value ([2]; 0.000 hr) was 54.410 mg/mL and the percent remaining ([2]; 2.5000 hr) was 92.079%. For the same compound, the “concentration in supernatant fluid” value ([2]; 4.0000 hr) was 47.110 mg/mL, the percent remaining ([2]; 4.0000 hr) was 86.583% and the “concentration in supernatant fluid” value ([2]; 6.0000 hr) was 43.130 mg/mL. The percent remaining ([2]; 6.0000 hr) was 79.269%, the “concentration in supernatant fluid” value ([2]; 8.0000 hr) was 39.310 mg/mL and the percent remaining ([2]; 8.0000 hr) was 72.248%. The “concentration in supernatant fluid” value ([2]; 10.000 hr) was 36.800 mg/mL, the percent remaining ([2]; 10.000 hr) was 67.635% and the “concentration in supernatant fluid” value ([2]; 12.000 hr) was 34.540 mg/mL. The percent remaining ([2]; 12.000 hr) was 63.481%, the “concentration in supernatant fluid” value ([2]; 20.000 hr) was 24.690 mg/mL and the percent remaining ([2]; 20.000 hr) was 45.378%. The “concentration in supernatant fluid” value ([2]; 24.000 hr) was 23.210 mg/mL, the percent remaining ([2]; 24.000 hr) was 42.658% and the “concentration in supernatant fluid” value ([2]; 29.000 hr) was 21.700 mg/mL. The percent remaining ([2]; 29.000 hr) was 39.882%, the “concentration in supernatant fluid” value ([2]; 34.000 hr) was 19.310 mg/mL and the percent remaining ([2]; 34.000 hr) was 35.490%. For the same compound, the “concentration in supernatant fluid” value ([2]; 44.000 hr) was 15.800 mg/mL, the percent remaining ([2]; 44.000 hr) was 29.039% and the “concentration in supernatant fluid” value ([2]; 48.000 hr) was 16.700 mg/mL. The percent remaining ([2]; 48.000 hr) was 30.822%, the “concentration in supernatant fluid” value ([2]; 68.000 hr) was 16.050 mg/mL and the percent remaining ([2]; 68.000 hr) was 29.498%. The “concentration in supernatant fluid” value ([2]; 92.000 hr) was 13.370 mg/mL, the percent remaining ([2]; 92.000 hr) was 24.573% and the “concentration in supernatant fluid” value ([3]; 0.0000 hr) was 54.850 mg/mL. For the same compound, the “concentration in supernatant fluid” value ([3]; 0.0000 hr, listed as L-aspartate) was 53.6 mg/mL, the “concentration in supernatant fluid” value ([3]; 2.0000 hr) was 49.340 mg/mL and the “concentration in supernatant fluid” value ([3]; 4.5000 hr) was 50.710 mg/mL. For the same compound, the “concentration in supernatant fluid” value ([3]; 7.0000 hr) was 50.230 mg/mL, the “concentration in supernatant fluid” value ([3]; 22.500 hr) was 54.490 mg/mL and the “concentration in supernatant fluid” value ([3]; 24.000 hr) was 50.780 mg/mL. The “concentration in supernatant fluid” value ([3]; 31.000 hr) was 51.450 mg/mL, the “concentration in supernatant fluid” value ([3]; 37.500 hr) was 53.850 mg/mL and the “concentration in supernatant fluid” value ([3]; 47.000 hr) was 52.370 mg/mL. The “concentration in supernatant fluid” value ([3]; 50.500 hr) was 51.080 mg/mL, the “concentration in supernatant fluid” value ([3]; 53.800 hr) was 46.500 mg/mL and the “concentration in supernatant fluid” value ([3]; 58.000 hr) was 50.040 mg/mL. The “concentration in supernatant fluid” value ([3]; 70.000 hr) was 52.400 mg/mL, the “concentration in supernatant fluid” value ([3]; 72.000 hr) was 50.430 mg/mL and the “concentration in supernatant fluid” value ([3]; 72.000 hr, listed as L-aspartate) was 5.39 mg/mL. For the same compound, the “reduction of L-aspartate” value ([3]; after 72.0 hours, 1.0M substrate) was 90%, the “substrate specificity of the enzyme” value [4] was “the only substrate for the enzyme” and the “concentration in supernatant fluid” value ([4]; 0 hr) was 26.810 mg/mL. The “concentration in supernatant fluid” value ([4]; 3.5 hr) was 14.050 mg/mL, the percent remaining ([4]; 3.5 hr) was 52.406% and the “concentration in supernatant fluid” value ([4]; 8.5 hr) was 12.660 mg/mL. For the same compound, the percent remaining ([4]; 8.5 hr) was 47.221%, the “concentration in supernatant fluid” value ([4]; 24 hr) was 9.4700 mg/mL and the percent remaining ([4]; 24 hr) was 35.323%. The “concentration in supernatant fluid” value ([4]; 55 hr) was 0.3300 mg/mL, the percent remaining ([4]; 55 hr, 3300 min) was 1.2309% and the percent remaining ([4]; 55 hr, listed as L-aspartic acid, 3300 min) was 1.23%.
